# According to US7368578B2, “Five-membered heterocyclic compounds” (Takeda Pharmaceutical Company Limited, priority 2002, dated 2008):
row,SMILES,melting point [°C]
1,"COC(=O)c1cc(-c2nc(COc3ccc(COc4nn(-c5ccccc5)cc4C=O)cc3OC)c(C)o2)ccc1OC [Example 256, methyl 5-{4-[(4-{[(4-formyl-1-phenyl-1H-pyrazol-3-yl)oxy]methyl}2-methoxyphenoxy)methyl]-5-methyl-1,3-oxazol-2-yl}-2-methoxybenzoate]",165 to 166
2,"CCOC(=O)/C=C/c1nc(-c2ccccc2)oc1COc1ccc(OCc2nc(-c3ccccc3)oc2C)cc1 [Example 258, ethyl (2E)-3-[5-({4-[(5-methyl-2-phenyl-1,3-oxazol-4-yl)methoxy]phenoxy}methyl)-2-phenyl-1,3-oxazol-4-yl]-2-propenoate]",107 to 108
3,"CCOC(=O)/C=C/c1cn(Cc2ccccc2)nc1OCc1ccc(OCc2nc(-c3ccco3)oc2C)c(OC)c1 [Example 259, ethyl (2E)-3-{1-benzyl-3-[(4-{[2-(2-furyl)-5-methyl-1,3-oxazol-4-yl]methoxy}-3-methoxybenzyl)oxy]-1H-pyrazol-4-yl}-2-propenoate]",147 to 148
4,"COc1cc(COc2nn(Cc3ccccc3)cc2/C=C/C(=O)O)ccc1OCc1nc(-c2ccco2)oc1C [Example 260, (2E)-3-{1-benzyl-3-[(4-{[2-(2-furyl)-5-methyl-1,3-oxazol-4-yl]methoxy}-3-methoxybenzyl)oxy]-1H-pyrazol-4-yl}-2-propenoic acid]",175 to 176
5,"Cc1oc(-c2ccccc2)nc1COc1ccc(OCc2oc(-c3ccccc3)nc2/C=C/C(=O)O)cc1 [Example 261, (2E)-3-[5-({4-[(5-methyl-2-phenyl-1,3-oxazol-4-yl)methoxy]phenoxy}methyl)-2-phenyl-1,3-oxazol-4-yl]-2-propenoic acid]",209 to 210
6,"COc1cc(COc2nn(-c3ccccc3)cc2/C=C2\SC(=O)NC2=O)ccc1OCc1nc(-c2ccco2)oc1C [Example 262, (5Z)-5-({3-[(4-{[2-(2-furyl)-5-methyl-1,3-oxazol-4-yl]methoxy}-3-methoxybenzyl)oxy]-1-phenyl-1H-pyrazol-4-yl}methylene)-1,3-thiazolidine-2,4-dione]",252 to 253
7,"CCOC(=O)c1cnc(-c2ccccc2)nc1OCc1ccc(OCc2nc(-c3ccco3)oc2C)c(OC)c1 [Example 263, ethyl 4-[(4-{[2-(2-furyl)-5-methyl-1,3-oxazol-4-yl]methoxy}-3-methoxybenzyl)oxy]-2-phenylpyrimidine-5-carboxylate]",142 to 143
8,"CCOC(=O)c1cn(C)nc1OCc1ccc(OCc2nc(-c3ccccc3)oc2C)c(OC)c1 [Example 264, ethyl 3-{[3-methoxy-4-(5-methyl-2-phenyl-1,3-oxazol-4-ylmethoxy)benzyl]oxy}-1-methyl-1H-pyrazole-4-carboxylate]",134 to 135
9,"COc1cc(COc2nn(C)cc2C(=O)O)ccc1OCc1nc(-c2ccccc2)oc1C [Example 265, 3-{[3-methoxy-4-(5-methyl-2-phenyl-1,3-oxazol-4-ylmethoxy)benzyl]oxy}-1-methyl-1H-pyrazole-4-carboxylic acid]",169 to 170
10,"COc1cc(COc2nn(C)cc2CO)ccc1OCc1nc(-c2ccccc2)oc1C [Example 266, (3-{[3-methoxy-4-(5-methyl-2-phenyl-1,3-oxazol-4-ylmethoxy)benzyl]oxy}-1-methyl-1H-pyrazol-4-yl)methanol]",108 to 109
11,"COc1cc(COc2nn(C)cc2C=O)ccc1OCc1nc(-c2ccccc2)oc1C [Example 267, 3-{[3-methoxy-4-(5-methyl-2-phenyl-1,3-oxazol-4-ylmethoxy)benzyl]oxy}-1-methyl-1H-pyrazole-4-carbaldehyde]",123 to 124
12,"COc1cc(COc2nn(C)cc2C(N)=O)ccc1OCc1nc(-c2ccccc2)oc1C [Example 268, 3-{[3-methoxy-4-(5-methyl-2-phenyl-1,3-oxazol-4-ylmethoxy)benzyl]oxy}-1-methyl-1H-pyrazole-4-carboxamide]",168 to 169
13,"COc1cc(COc2nn(C)cc2C(=O)N(C)OC)ccc1OCc1nc(-c2ccccc2)oc1C [Example 269, N-methoxy-N-methyl-3-{[3-methoxy-4-(5-methyl-2-phenyl-1,3-oxazol-4-ylmethoxy)benzyl]oxy}-1-methyl-1H-pyrazole-4-carboxamide]",138 to 139

# Second part, the compound after the results:
row,melting point [°C],SMILES
1,170 to 171,"COc1cc(COc2nn(C)cc2C(C)=O)ccc1OCc1nc(-c2ccccc2)oc1C [Example 270, 1-(3-{[3-methoxy-4-(5-methyl-2-phenyl-1,3-oxazol-4-ylmethoxy)benzyl]oxy}-1-methyl-1H-pyrazol-4-yl)ethanone]"
2,94 to 95,"COc1cc(COc2nn(C)cc2C(C)O)ccc1OCc1nc(-c2ccccc2)oc1C (stereo not shown) [Example 271, 1-(3-{[3-methoxy-4-(5-methyl-2-phenyl-1,3-oxazol-4-ylmethoxy)benzyl]oxy}-1-methyl-1H-pyrazol-4-yl)ethanol]"
3,160 to 161,"CCOC(=O)c1cn(-c2ccccc2)nc1OCc1ccc(OCc2nc(-c3ccccc3)oc2C)c(OC)c1 [Example 272, ethyl 3-{[3-methoxy-4-(5-methyl-2-phenyl-1,3-oxazol-4-ylmethoxy)benzyl]oxy}-1-phenyl-1H-pyrazole-4-carboxylate]"
4,209 to 210,"COc1cc(COc2nn(-c3ccccc3)cc2C(=O)O)ccc1OCc1nc(-c2ccccc2)oc1C [Example 273, 3-{[3-methoxy-4-(5-methyl-2-phenyl-1,3-oxazol-4-ylmethoxy)benzyl]oxy}-1-phenyl-1H-pyrazole-4-carboxylic acid]"
5,142 to 143,"COc1cc(COc2nn(-c3ccccc3)cc2C=O)ccc1OCc1nc(-c2ccccc2)oc1C [Example 275, 3-{[3-methoxy-4-(5-methyl-2-phenyl-1,3-oxazol-4-ylmethoxy)benzyl]oxy}-1-phenyl-1H-pyrazole-4-carbaldehyde]"
6,190 to 191,"COc1cc(COc2nn(-c3ccccc3)cc2C(N)=O)ccc1OCc1nc(-c2ccccc2)oc1C [Example 276, 3-{[3-methoxy-4-(5-methyl-2-phenyl-1,3-oxazol-4-ylmethoxy)benzyl]oxy}-1-phenyl-1H-pyrazole-4-carboxamide]"
7,156 to 158,"COc1cc(CC(=O)Nc2nn(-c3ccccc3)cc2C=O)ccc1OCc1nc(-c2ccccc2)oc1C [Example 277, N-(4-formyl-1-phenyl-1H-pyrazol-3-yl)-2-{3-methoxy-4-[(5-methyl-2-phenyl-1,3-oxazol-4-yl)methoxy]phenyl}acetamide]"
8,174 to 175,"COc1cc(COc2nn(-c3ccccc3)cc2C#N)ccc1OCc1nc(-c2ccccc2)oc1C [Example 278, 3-{[3-methoxy-4-(5-methyl-2-phenyl-1,3-oxazol-4-ylmethoxy)benzyl]oxy}-1-phenyl-1H-pyrazole-4-carbonitrile]"
9,143 to 144,"COc1cc(COc2nc(-c3ccccc3)ncc2C=O)ccc1OCc1nc(-c2ccco2)oc1C [Example 280, 4-[(4-{[2-(2-furyl)-5-methyl-1,3-oxazol-4-yl]methoxy}-3-methoxybenzyl)oxy]-2-phenylpyrimidine-5-carbaldehyde]"
10,188 to 189,"COc1cc(COc2nn(-c3ccccc3)cc2/C=C/C(=O)O)ccc1OCc1nc(-c2ccccc2)oc1C [Example 281, (E)-3-(3-{[3-methoxy-4-(5-methyl-2-phenyl-1,3-oxazol-4-ylmethoxy)benzyl]oxy}-1-phenyl-1H-pyrazol-4-yl)-2-propenoic acid]"
11,137 to 138,"COc1cc(COc2nn(-c3ccccc3)cc2CC#N)ccc1OCc1nc(-c2ccccc2)oc1C [Example 283, (3-{[3-methoxy-4-(5-methyl-2-phenyl-1,3-oxazol-4-ylmethoxy)benzyl]oxy}-1-phenyl-1H-pyrazol-4-yl)acetonitrile]"
12,212 to 213,"COc1cc(C(=O)Nc2nn(-c3ccccc3)cc2C=O)ccc1OCc1nc(-c2ccco2)oc1C [Example 290, N-(4-formyl-1-phenyl-1H-pyrazol-3-yl)-4-{[2-(2-furyl)-5-methyl-1,3-oxazol-4-yl]methoxy}-3-methoxybenzamide]"
13,143 to 144,"COC(=O)c1cc(OCc2ccc(OCc3nc(-c4ccccc4)oc3C)c(OC)c2)nn1-c1ccccc1 [Example 291, methyl 3-{[3-methoxy-4-(5-methyl-2-phenyl-1,3-oxazol-4-ylmethoxy)benzyl]oxy}-1-phenyl-1H-pyrazole-5-carboxylate]"
14,192 to 193,"COc1cc(COc2cc(C(=O)O)n(-c3ccccc3)n2)ccc1OCc1nc(-c2ccccc2)oc1C [Example 292, 3-{[3-methoxy-4-(5-methyl-2-phenyl-1,3-oxazol-4-ylmethoxy)benzyl]oxy}-1-phenyl-1H-pyrazole-5-carboxylic acid]"
15,146 to 147,"COc1cc(COc2cc(CO)n(-c3ccccc3)n2)ccc1OCc1nc(-c2ccccc2)oc1C [Example 293, (3-{[3-methoxy-4-(5-methyl-2-phenyl-1,3-oxazol-4-ylmethoxy)benzyl]oxy}-1-phenyl-1H-pyrazol-5-yl)methanol]"
16,119 to 120,"COc1cc(COc2cc(C=O)n(-c3ccccc3)n2)ccc1OCc1nc(-c2ccccc2)oc1C [Example 294, 3-{[3-methoxy-4-(5-methyl-2-phenyl-1,3-oxazol-4-ylmethoxy)benzyl]oxy}-1-phenyl-1H-pyrazole-5-carbaldehyde]"
17,205 to 206,"CCOC(=O)/C=C/c1cn(-c2ccc(C(F)(F)F)cc2)nc1OCc1ccc(OCc2nc(-c3ccccc3)oc2C)c(OC)c1 [Example 295, ethyl (2E)-3-{3-({3-methoxy-4-[(5-methyl-2-phenyl-1,3-oxazol-4-yl)methoxy]benzyl}oxy)-1-[4-(trifluoromethyl)phenyl]-1H-pyrazol-4-yl}-2-propenoate]"
18,118 to 119,"COc1cc(COc2nn(-c3ccc(C(F)(F)F)cc3)cc2/C=C/CO)ccc1OCc1nc(-c2ccccc2)oc1C [Example 296, (2E)-3-{3-({3-methoxy-4-[(5-methyl-2-phenyl-1,3-oxazol-4-yl)methoxy]benzyl}oxy)-1-[4-(trifluoromethyl)phenyl]-1H-pyrazol-4-yl}-2-propen-1-ol]"
